The results in this text go back to patent US10888567B2, “Inhibitors of tryptophan dioxygenases (IDO1 and TDO) and their use in therapy” (AUCKLAND UNISERVICES LIMITED, priority 2014, dated 2021).

For experiment [1], the target named is Recombinant human IDO1 (rhIDO1) (Homo sapiens (Human), UniProt P14902). The experiment in a line: Enzymatic assay for IDO1 activity. Particulars: rhIDO1 9 nM, 80 μM TRP, 37° C. 30 min. The format is biochemical. As for the experimental part:
Recombinant human IDO1 (rhIDO1) was expressed and purified from cultures of EC538 strain of E. coli transformed with pREP4 and pQE9-IDO plasmid. Reaction mixes were set up in 384-well microplates containing 50 mM phosphate buffer, 10 mM ascorbic, 10 μM methylene blue, 100 μg/mL catalase, 80 μM TRP, 0.01% Tween 20 (v/v) mixed with rhIDO1 (15 μL) at a final concentration of 9 nM in a total volume of 30 μL assay medium. The plates were incubated at 37° C. for 30 min, and the enzymatic reaction was terminated by adding piperidine (200 mM) and heated at 65° C. for 20 min. Fluorescence intensity was read at λex 400 nm and λem 500 nm. Test compounds were dissolved in 100% DMSO and pre-diluted in assay medium prior to adding rhIDO1. IDO1 inhibition (%) was calculated as
[formula] All experiments were carried out in triplicates, and statistical Analyses were conducted in Prism v5 (Graphpad Software, Inc., La Jolla, Calif., USA). Cell-Based Assay for IDO1 Inhibition

The target of experiment [2] is human IDO1 (LLTC-hIDO1 cells) (Homo sapiens, UniProt P14902). The experiment in a line: Cell-based assay for IDO1 inhibition (kynurenine in supernatant). The conditions noted are these: IDO1-transfected Lewis Lung carcinoma cells, 24 h; read-out: Cellular IC50. As for the experimental part:
Culture supernatant from each well was then transferred into a fresh, flat-bottomed 96-well plate, mixed with trichloroacetic acid (10% final concentration) and incubated for 20 min at 60° C. […] The absorbance of each well was read at 480 nm, and the concentration that inhibited 50% cellular enzyme activity was calculated.

In experiment [3] the test system is Lewis Lung carcinoma cells transfected to express IDO1 (LLTC-hIDO1). Briefly: MTT cell viability in the cellular IDO1 assay. The format is cell-based. Particulars: same experiment as cellular IDO1 assay. As for the experimental part: The viability of the cells in each well in the same experiment was determined using the 3-(4,5-dimethylthiazolyl-2-yl)-2,5-diphenyltetrazolium bromide (MTT) colourimetric assay. After the removal of the supernatant for determination of IDO1 inhibition, the cells were incubated with MTT (500 μg/mL) until crystal formation was observed. […] DMSO (100 μL/well) was added to dissolve the crystals and then the absorbance in each well was measured at 570 nm. Cell viability in each well was expressed as a percentage of untreated controls. Triplicate cultures were used for all experiments unless stated otherwise.

Molecules are shown by their SMILES.

Sequence of Recombinant human IDO1 (rhIDO1) (P14902 whole entry): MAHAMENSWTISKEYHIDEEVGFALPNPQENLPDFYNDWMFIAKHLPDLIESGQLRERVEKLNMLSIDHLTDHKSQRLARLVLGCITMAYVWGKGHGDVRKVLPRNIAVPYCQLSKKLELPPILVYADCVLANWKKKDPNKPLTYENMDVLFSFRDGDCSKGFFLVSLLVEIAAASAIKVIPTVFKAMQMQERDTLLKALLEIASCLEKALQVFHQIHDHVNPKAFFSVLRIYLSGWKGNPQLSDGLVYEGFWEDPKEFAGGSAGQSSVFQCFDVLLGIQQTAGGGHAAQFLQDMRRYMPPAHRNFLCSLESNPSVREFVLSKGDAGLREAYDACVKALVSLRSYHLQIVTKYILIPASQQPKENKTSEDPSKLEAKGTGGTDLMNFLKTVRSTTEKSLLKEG

As to `Cc1cnc2onc(N)c2c1` [Compound 44, 5-Methylisoxazolo[5,4-b]pyridin-3-amine], the IC50 in experiment [1] was more than 100 µM; in experiment [2], 10 to 100 µM; in experiment [3], more than 100 µM. As for `CC(C)c1ccc2c(N)noc2n1` [Compound 48, 6-Isopropylisoxazolo[5,4-b]pyridin-3-amine], the concentration for half-maximal inhibition (IC50) is more than 100 µM in experiment [1], 10 to 100 µM in experiment [2] and more than 100 µM in experiment [3].

Turning to `Nc1noc2nc(C(F)(F)F)ccc12` [Compound 47, 6-(Trifluoromethyl)isoxazolo[5,4-b]pyridin-3-amine], the IC50 in experiment [1] was less than 1 µM; in experiment [2], 1 to 10 µM; in experiment [3], more than 100 µM. For `Nc1noc2nc(-c3cccs3)ccc12` [Compound 74, 6-(2-Thienyl)isoxazolo[5,4-b]pyridin-3-amine], in that order: more than 100 µM, 1 to 10 µM and more than 100 µM. With `Nc1noc2nc3c(cc12)CCCC3` [Compound 10, 5,6,7,8-Tetrahydroisoxazolo[5,4-b]quinolin-3-amine], the figures for the IC50 in experiment [1], in experiment [2] and in experiment [3] were more than 100 µM, 1 to 10 µM and more than 100 µM, respectively.

Take `Nc1noc2nc3c(cc12)COCC3` [Compound 62, 7,8-Dihydro-5H-isoxazolo[5,4-b]pyrano[3,4-e]pyridin-3-amine]: the IC50 in experiment [1] is more than 100 µM. As to `Nc1noc2nc(OCCN3CCOCC3)ccc12` [Compound 78, 6-(2-Morpholinoethoxy)isoxazolo[5,4-b]pyridin-3-amine], the IC50 in experiment [1], in experiment [2] and in experiment [3] was more than 100 µM in each case.

`COc1ccccc1Oc1ccc2c(N)noc2n1` [Compound 90, 6-(2-Methoxyphenoxy)isoxazolo[5,4-b]pyridin-3-amine]: the IC50 was more than 100 µM in experiment [1], 10 to 100 µM in experiment [2] and more than 100 µM in experiment [3]. Regarding `Nc1ccc2c(N)noc2n1` [Compound 43, Isoxazolo[5,4-b]pyridine-3,6-diamine], the IC50 in experiment [1] is more than 100 µM. On the same count and under the same terms, in the case of `Cc1nc2onc(N)c2c(C)c1C` [Compound 5, 4,5,6-Trimethylisoxazolo[5,4-b]pyridin-3-amine] it was 10 to 100 µM. Take `CCOC(=O)c1cc2c(N)noc2nc1C(F)(F)F` [Compound 50, Ethyl 3-amino-6-(trifluoromethyl)isoxazolo[5,4-b]pyridine-5-carboxylate]: the results for the IC50 in experiment [1], in experiment [2] and in experiment [3] were 10 to 100 µM, 10 to 100 µM and more than 100 µM, respectively. For the molecule `Nc1noc2nc(-c3ccc(Cl)cc3Cl)ccc12` [Compound 72, 6-(2,4-Dichlorophenyl)isoxazolo[5,4-b]pyridin-3-amine], the IC50 in experiment [1], in experiment [2] and in experiment [3] was more than 100 µM each time. In the case of `COc1ccc(Nc2ccc3c(N)noc3n2)cc1` [Compound 96, N^6-(4-Methoxyphenyl)isoxazolo[5,4-b]pyridine-3,6-diamine], the IC50 in experiment [1], in experiment [2] and in experiment [3] was more than 100 µM in each case.

`Nc1noc2ncc(Br)cc12` [Compound 6, 5-Bromoisoxazolo[5,4-b]pyridin-3-amine]: the IC50 in experiment [1] is 10 to 100 µM; in experiment [2], less than 1 µM; in experiment [3] it was more than 100 µM. Consider `COc1ccc(Oc2ccc3c(N)noc3n2)cc1` [Compound 92, 6-(4-Methoxyphenoxy)isoxazolo[5,4-b]pyridin-3-amine], for which, in experiment [1], the IC50 is more than 100 µM. Same read-out and setting: in the case of `Nc1noc2nc(Oc3cccc(Cl)c3)ccc12` [Compound 85, 6-(3-Chlorophenoxy)isoxazolo[5,4-b]pyridin-3-amine] it was more than 100 µM.

For the molecule `Nc1noc2nc(-c3ccc(F)cc3F)ccc12` [Compound 73, 6-(2,4-Difluorophenyl)isoxazolo[5,4-b]pyridin-3-amine], the IC50 is more than 100 µM in experiment [1], 10 to 100 µM in experiment [2] and more than 100 µM in experiment [3]. Regarding `CSc1nc(-c2ccccc2)nc2onc(N)c12` [Compound 65, 4-(Methylthio)-6-phenylisoxazolo[5,4-d]pyrimidin-3-amine], the IC50 in experiment [1], in experiment [2] and in experiment [3] was more than 100 µM in each case. In the case of `Nc1noc2nc(Oc3ccc(Cl)cc3)ccc12` [Compound 86, 6-(4-Chlorophenoxy)isoxazolo[5,4-b]pyridin-3-amine], the IC50 in experiment [1] is more than 100 µM. Take `COc1ccnc2onc(N)c12` [Compound 51, 4-Methoxyisoxazolo[5,4-b]pyridin-3-amine]: the IC50 in experiment [1] is more than 100 µM. The same measure, in the same setting: in the case of `Nc1noc2ncc(-c3ccccc3O)cc12` [Compound 28, 2-(3-Aminoisoxazolo[5,4-b]pyridin-5-yl)phenol] it was more than 100 µM. Take `Nc1noc2nc(-c3ccc(F)cc3)ccc12` [Compound 71, 6-(4-Fluorophenyl)isoxazolo[5,4-b]pyridin-3-amine]: the IC50 was more than 100 µM in experiment [1], 10 to 100 µM in experiment [2] and more than 100 µM in experiment [3]. With `Cc1cc(C)c2c(N)noc2n1` [Compound 4, 4,6-Dimethylisoxazolo[5,4-b]pyridin-3-amine], the figures for the half-inhibitory concentration (IC50) in experiment [1], in experiment [2] and in experiment [3] were 10 to 100 µM, 1 to 10 µM and more than 100 µM, respectively.

As to `COc1cccc(Oc2ccc3c(N)noc3n2)c1` [Compound 91, 6-(3-Methoxyphenoxy)isoxazolo[5,4-b]pyridin-3-amine], the IC50 in experiment [1] was more than 100 µM.

In the case of `Nc1noc2nccc(-c3ccccc3)c12` [Compound 13, 4-Phenylisoxazolo[5,4-b]pyridin-3-amine], the half-maximal inhibitory concentration (IC50) in experiment [1], in experiment [2] and in experiment [3] was more than 100 µM each time.

Regarding `Nc1noc2nc(N3CCOCC3)c(F)cc12` [Compound 55, 5-Fluoro-6-morpholinoisoxazolo[5,4-b]pyridin-3-amine], in experiment [1], the IC50 is more than 100 µM. For `CN(C)c1ccc2c(N)noc2n1` [Compound 18, N^6,N^6-Dimethylisoxazolo[5,4-b]pyridine-3,6-diamine], the IC50 in experiment [1] was more than 100 µM.

For the molecule `Cc1ccc2c(N)noc2n1` [Compound 7, 6-Methylisoxazolo[5,4-b]pyridin-3-amine], the IC50 in experiment [1] is more than 100 µM.

Turning to `CN(C)c1ccnc2onc(N)c12` [Compound 19, N^4,N^4-Dimethylisoxazolo[5,4-b]pyridine-3,4-diamine], the IC50 in experiment [1] is more than 100 µM. The same measure, in the same setting: in the case of `CC1(C)CCc2nc3onc(N)c3cc2C1` [Compound 61, 6,6-Dimethyl-5,6,7,8-tetrahydroisoxazolo[5,4-b]quinolin-3-amine] it was more than 100 µM; in that of `Nc1noc2nc(Oc3ccccc3)ccc12` [Compound 83, 6-Phenoxyisoxazolo[5,4-b]pyridin-3-amine], more than 100 µM. The same measure, in the same setting: the result for `Nc1noc2nc3c(cc12)CCCCC3` [Compound 60, 6,7,8,9-Tetrahydro-5H-cyclohepta[b]isoxazolo[4,5-e]pyridin-3-amine] reads more than 100 µM; that for `Nc1noc2ccncc12` [Compound 17, Isoxazolo[4,5-c]pyridin-3-amine], more than 100 µM. Still for that read-out and setting: the result for `Nc1noc2ncc(-c3ccc(F)cc3)cc12` [Compound 30, 5-(4-Fluorophenyl)isoxazolo[5,4-b]pyridin-3-amine] reads more than 100 µM; that for `Nc1noc2ncc(F)cc12` [Compound 14, 5-Fluoroisoxazolo[5,4-b]pyridin-3-amine], more than 100 µM. As to `CCOC(=O)c1cc2c(N)noc2nc1C` [Compound 53, Ethyl 3-amino-6-methylisoxazolo[5,4-b]pyridine-5-carboxylate], the IC50 in experiment [1] was more than 100 µM.
